Molecules are shown by their SMILES.

In the experiment the test system is BRD pathogens, M. haemolytica and P. multocida. As to the kind of experiment: MIC screening panel of BRD pathogens (antibacterial / non-antibacterial). As to conditions: read-out: antibacterial / non-antibacterial (MIC for the BRD pathogens).
Regarding `CCCNC[C@]1(O)[C@H](C)O[C@@H](O[C@H]2[C@H](C)[C@@H](O[C@@H]3O[C@H](C)C[C@H](N(C)C(=O)N(C)c4cc(C)nc(C)n4)[C@H]3O)[C@](C)(O)C[C@@H](C)CN[C@H](C)[C@@H](O)[C@](C)(O)[C@@H](CC)OC(=O)[C@@H]2C)C[C@@]1(C)OC` [Example H-57, 1-(2,6-dimethylpyrimidin-4-yl)-3-((2S,3R,4S,6R)-2-(((2R,3S,4R,5R,8R,10R,11R,12S,13S,14R)-2-ethyl-3,4,10-trihydroxy-13-(((2R,4R,5S,6S)-5-hydroxy-4-methoxy-4,6-dimethyl-5-((propylamino)methyl)tetrahydro-2H-pyran-2-yl)oxy)-3,5,8,10,12,14-hexamethyl-15-oxo-1-oxa-6-azacyclopentadecan-11-yl)oxy)-3-hydroxy-6-methyltetrahydro-2H-pyran-4-yl)-1,3-dimethylurea], the MIC is more than 64 µg/mL.

`CCCNC[C@]1(O)[C@H](C)O[C@@H](O[C@H]2[C@H](C)[C@@H](O[C@@H]3O[C@H](C)C[C@H](N(C)C(=O)Nc4cccc(OC)c4)[C@H]3O)[C@](C)(O)C[C@@H](C)CN[C@H](C)[C@@H](O)[C@](C)(O)[C@@H](CC)OC(=O)[C@@H]2C)C[C@@]1(C)OC` [Example H-86, 1-((2S,3R,4S,6R)-2-(((2R,3S,4R,5R,8R,10R,11R,12S,13S,14R)-2-ethyl-3,4,10-trihydroxy-13-(((2R,4R,5S,6S)-5-hydroxy-4-methoxy-4,6-dimethyl-5-((propylamino)methyl)tetrahydro-2H-pyran-2-yl)oxy)-3,5,8,10,12,14-hexamethyl-15-oxo-1-oxa-6-azacyclopentadecan-11-yl)oxy)-3-hydroxy-6-methyltetrahydro-2H-pyran-4-yl)-3-(3-methoxyphenyl)-1-methylurea]: the MIC is more than 64 µg/mL.

`CC[C@H]1OC(=O)[C@H](C)[C@@H](O[C@H]2C[C@@](C)(OC)[C@](O)(CN(CC)CC)[C@H](C)O2)[C@H](C)[C@@H](O[C@@H]2O[C@H](C)C[C@H](N(C)C(=O)Nc3ccccc3)[C@H]2O)[C@](C)(O)C[C@@H](C)CN[C@H](C)[C@@H](O)[C@]1(C)O` [Example H-4, 1-((2S,3R,4S,6R)-2-(((2R,3S,4R,5R,8R,10R,11R,12S,13S,14R)-13-(((2R,4R,5S,6S)-5-((diethylamino)methyl)-5-hydroxy-4-methoxy-4,6-dimethyltetrahydro-2H-pyran-2-yl)oxy)-2-ethyl-3,4,10-trihydroxy-3,5,8,10,12,14-hexamethyl-15-oxo-1-oxa-6-azacyclopentadecan-11-yl)oxy)-3-hydroxy-6-methyltetrahydro-2H-pyran-4-yl)-1-methyl-3-phenylurea]: the MIC is more than 64 µg/mL.

For `CC[C@H]1OC(=O)[C@H](C)[C@@H](O[C@H]2C[C@@](C)(OC)[C@](O)(CN(CCN3CCOCC3)C(=O)NC3CC3)[C@H](C)O2)[C@H](C)[C@@H](O[C@@H]2O[C@H](C)C[C@H](N(C)C(=O)NC3CC3)[C@H]2O)[C@](C)(O)C[C@@H](C)CN[C@H](C)[C@@H](O)[C@]1(C)O` [Example H-1, 3-cyclopropyl-1-((2S,3R,4S,6R)-2-(((2R,3S,4R,5R,8R,10R,11R,12S,13S,14R)-13-(((2R,4R,5S,6S)-5-((3-cyclopropyl-1-(2-morpholinoethyl)ureido)methyl)-5-hydroxy-4-methoxy-4,6-dimethyltetrahydro-2H-pyran-2-yl)oxy)-2-ethyl-3,4,10-trihydroxy-3,5,8,10,12,14-hexamethyl-15-oxo-1-oxa-6-azacyclopentadecan-11-yl)oxy)-3-hydroxy-6-methyltetrahydro-2H-pyran-4-yl)-1-methylurea], the MIC was more than 64 µg/mL.

Regarding `CC[C@H]1OC(=O)[C@H](C)[C@@H](O)[C@H](C)[C@@H](O[C@@H]2O[C@H](C)C[C@H](N(C)C(=O)Nc3ccccn3)[C@H]2O)[C@](C)(O)C[C@@H](C)CN[C@H](C)[C@@H](O)[C@]1(C)O` [Example A-3, 1-((2S,3R,4S,6R)-2-(((2R,3S,4R,5R,8R,10R,11R,12S,13S,14R)-2-ethyl-3,4,10,13-tetrahydroxy-3,5,8,10,12,14-hexamethyl-15-oxo-1-oxa-6-azacyclopentadecan-11-yl)oxy)-3-hydroxy-6-methyltetrahydro-2H-pyran-4-yl)-1-methyl-3-(pyridin-2-yl)urea], the MIC was more than 64 µg/mL.

(Values after patent publication US12295936B2, “Immunomodulating urea azalides” (Zoetis Services LLC, priority 2020, dated 2025).)
